Molecular target: T1, EGFR (Homo sapiens, UniProt P00533)
T1 construct: GST-tagged EGFR (696–1022), intracellular kinase domain
Assay: SPR (Biacore T200, GST-EGFR captured by anti-GST on CM5 chip); also kinase assay (Kinase-Glo) IC50 about […]
Format: binding

T1 sequence (P00533 696-1022): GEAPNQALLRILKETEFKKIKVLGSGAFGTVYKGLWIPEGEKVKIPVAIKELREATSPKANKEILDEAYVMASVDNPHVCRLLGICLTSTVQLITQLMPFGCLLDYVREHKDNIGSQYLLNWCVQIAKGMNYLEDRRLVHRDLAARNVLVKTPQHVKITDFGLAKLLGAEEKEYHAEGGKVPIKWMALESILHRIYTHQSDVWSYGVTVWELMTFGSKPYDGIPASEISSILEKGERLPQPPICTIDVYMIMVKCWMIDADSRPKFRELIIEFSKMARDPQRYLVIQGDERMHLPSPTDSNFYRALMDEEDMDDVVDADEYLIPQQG

O[C@H]1[C@H]2c3cc4c(cc3CN3CCC(=C[C@@H]1O)[C@H]23)OCO4 [Lycorine]
Kd: ~3.6 µM

— PMC6050662, “Lycorine inhibits glioblastoma multiforme growth through EGFR suppression” (Journal of Experimental & Clinical Cancer Research : CR, 2018)
